Assay results from PubChem BioAssay (NCI).
Several values for one entry are separate records, joined by “and”; a condition that tells them apart may be missing. Identical values can stand only once.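 1) Cells in 96-well plates. 2) Compound, 48 h, 5 concentrations. 3) Linear interpolation between surrounding doses. 4) Unreached endpoint = highest concentration. Abbreviation: GI50, concentration required for 50% inhibition of growth. The concentration for full growth arrest is given as TGI.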

How the values were obtained:
Test in all cases: NCI anticancer screen, dose series, 48 h
[1] = test system: OVCAR-8 ovarian
[2] = test system: LOX IMVI melanoma
[3] = test system: HCT-15 colon
[4] = test system: HOP-62 NSCLC
[5] = test system: PC-3 prostate
[6] = test system: OVCAR-3 ovarian
[7] = test system: U251 CNS
[8] = test system: SN12C renal

| SMILES | TGI [1] | TGI [2] | TGI [3] | TGI [4] | TGI [5] | TGI [6] | TGI [7] | TGI [8] | GI50 [1] | GI50 [2] | GI50 [3] | GI50 [4] | GI50 [5] | GI50 [6] | GI50 [7] | GI50 [8] |
| --- | --- | --- | --- | --- | --- | --- | --- | --- | --- | --- | --- | --- | --- | --- | --- | --- |
| CN(N=O)c1ccc(/C=C/c2ccnc3ccccc23)cc1 | > 100 µM | > 100 µM | > 100 µM | > 100 µM | > 100 µM | > 100 µM | > 100 µM | > 100 µM |  |  |  |  |  |  |  |  |
| Cc1ccc(C)c(N2CCN(c3ccncc3N)CC2)c1 | > 100 µM | 61.1 µM | > 100 µM | > 100 µM | 84.7 µM | 58.8 µM | 97.4 µM | > 100 µM | 20.2 µM | 20.6 µM | 5.61 µM | 26.9 µM | 14.2 µM | 12.2 µM | 4.78 µM | 20.9 µM |
| Cc1cnc(C(=O)Nc2nc3ccc(S(=O)(=O)Nc4ccc(C(C)(C)C)cc4)cc3[nH]2)cn1 | 17.2 µM | 13.1 µM | 3.09 µM | 18.8 µM | 8.31 µM | 1.32 µM | 9.99 µM | 13.3 µM | 1.26 µM | 0.79 µM | 0.304 µM | 0.785 µM | 0.402 µM | 0.308 µM | 0.648 µM | 0.592 µM |
| COc1ccc2c(c1O)[C@@]13CCCC=C1[C@@H](C2)N(C)CC3 | > 100 µM | > 100 µM | > 100 µM | > 100 µM | > 100 µM | > 100 µM | > 100 µM | > 100 µM |  |  |  |  |  |  |  |  |
| COc1cc2c3c(c4ccc(O)cc4c2cc1OC)[C@@H](O)[C@@H]1CCCN1C3 | 0.48 µM | 0.00339 µM | 0.204 µM | 0.0421 µM | 0.175 µM | 0.00493 µM | 0.00241 µM | 0.00932 µM |  |  |  |  |  |  |  |  |
| O=C(O)CN(CCN(CC(=O)O)CC(=O)O)CC(=O)O.[Cu+2].[Na+] | > 100 µM | > 100 µM | > 100 µM | 79.5 µM | > 100 µM | 51.8 µM | > 100 µM | > 100 µM | > 100 µM | > 100 µM | > 100 µM | 26.2 µM | > 100 µM | 19.2 µM | > 100 µM | > 100 µM |
| O=C(NCCN1CCOCC1)c1cc2c(Oc3ccc(NC(=O)C4(C(=O)Nc5ccc(F)cc5)CC4)cc3)ccnc2[nH]1 | > 100 µM | 39.6 µM | > 100 µM | 31.5 µM | 64.6 µM | > 85.7 µM | 34.5 µM | > 100 µM | 5.19 µM | 2.05 µM | 12.5 µM | 3.22 µM | 5.77 µM | 19 µM | 7.87 µM | 1.44 µM |
| O=C(O)CCCCCNCc1cc2cc3c(cc2c2cc(OCc4ccccc4)ccc12)OCO3 | 3.21 µM | 3.1 µM | 5.88 µM | 5.25 µM |  | 5.06 µM | 3.28 µM | 19.8 µM | 1.61 µM | 1.62 µM | 2.03 µM | 2 µM |  | 2.11 µM | 1.73 µM | 5.42 µM |
| CC[C@H](C)[C@H](NC(=O)CN(C)C)C(=O)N(C)[C@H](C[C@@H](OC(C)=O)c1nc(C(=O)NC23C4C5C2C2C3C4C52C(=O)OC)cs1)C(C)C (stereo not given in full) | > 33.2 µM | > 33.2 µM | > 33.2 µM | > 33.2 µM | > 33.2 µM | 1.31 µM | > 33.2 µM | > 18.8 µM | 0.507 µM | 0.321 µM | 1.04 µM |  | 0.768 µM | 0.113 µM | 0.8 µM | 0.276 µM |
| CCCCCn1sc(=O)n(Cc2ccc(CNC(=O)C(C)c3ccc(CC(C)C)cc3)cc2)c1=O (stereo not given) | 2.73 µM | 1.52 µM | 1.62 µM | 3.35 µM | 2.47 µM | 1.63 µM | 3.04 µM | 2.37 µM | 1.09 µM | 0.474 µM | 0.424 µM | 1.41 µM | 0.876 µM | 0.488 µM | 1.56 µM | 1.1 µM |
| COc1cc(/C=N\Nc2ccccc2)ccc1OC(=O)c1ccccc1 | > 100 µM | 4.57 µM | 17.6 µM | > 64.7 µM | 22.7 µM | > 68.9 µM | 36.5 µM | > 100 µM | 3.46 µM | 0.296 µM | 0.306 µM | 8.38 µM | 0.921 µM | 4.19 µM | 8.38 µM | 11 µM |
| O=C(CC1(O)C(=O)Nc2ccc(Cl)cc21)c1ccc(C(=O)NCC2CCC3(CC2)OOC2(CCCCC2)OO3)cc1 (stereo not given) | 11.6 µM | 8.85 µM | 17.2 µM | 2 µM | 5.83 µM |  | 3.39 µM | 18.4 µM | 2.68 µM | 0.301 µM | 3.06 µM | 0.445 µM | 1.88 µM |  | 1.64 µM | 3.45 µM |
| CC(C)(C)n1cc(-c2ccnc(NCCCNS(=O)(=O)c3cccc4ccccc34)c2)c(-c2cccc(O)c2)n1 | 6.28 µM | 3.28 µM | 3.64 µM |  | 5.57 µM | 4.22 µM | 3.87 µM | 3.33 µM | 2.38 µM | 1.73 µM | 1.53 µM |  | 1.85 µM | 2.06 µM | 1.73 µM | 1.73 µM |
| COc1cc2c3c(c4cc(OC)c(OC)cc4c2cc1OC)CN1CCC[C@H]1C3 | > 34 µM | 0.245 µM and 1.46 µM |  | 2.85 µM |  | 0.379 µM and 1.15 µM | 0.331 µM | 1.3 µM and 0.374 µM | 0.0381 µM and < 0.0103 µM |  | 0.0463 µM and 0.0111 µM | 0.0409 µM and < 0.0147 µM |  |  | 0.0221 µM and < 0.01 µM | 0.0429 µM and < 0.0105 µM |
| N#Cc1sc2nc3c(c(-c4ccccc4)c2c1N)CCCC3 | > 100 µM | > 100 µM | > 100 µM |  |  |  | > 100 µM | > 100 µM |  |  |  |  |  |  |  |  |
| COc1cc([C@H]2OC[C@@H]3C(c4cc(OC)c5c(c4)OCO5)OC[C@H]23)cc(OC)c1OC (stereo not given in full) | > 100 µM | > 100 µM | > 100 µM | > 100 µM | > 100 µM | > 100 µM | > 100 µM |  |  |  |  |  |  |  |  |  |
| C=C(C)[C@@H]1CC[C@]2(C(=O)O)CC[C@]3(C)[C@H](CC[C@@H]4[C@@]5(C)CCC(N)C(C)(C)[C@@H]5CC[C@]43C)[C@@H]12 (stereo not given in full) |  |  |  | 7 µM |  | 3.66 µM | 3.6 µM | 3.35 µM |  |  |  | 2.49 µM |  | 1.9 µM | 1.95 µM | 1.78 µM |
| CC1(C)C2CC(=O)C1(C)C(OCc1ccccc1)C2Br (stereo not given) | 56.8 µM and > 100 µM |  | 31.1 µM and > 100 µM | 33.9 µM and > 100 µM | 47.8 µM and > 100 µM | 37.1 µM and > 100 µM | 44.6 µM and > 100 µM | 52.9 µM and > 100 µM | 22.7 µM and 95.7 µM |  |  | 16.3 µM and 54.3 µM |  | 19.3 µM and 53.4 µM | 22.4 µM and 51.7 µM | 24.2 µM and 82.1 µM |
